Results as given in ChEMBL document CHEMBL3585330, “Anticancer activity of koningic acid and semisynthetic derivatives” (Bioorg Med Chem, 2015).
Calls of active or inactive are those of the source. No cut-off for these calls is given here.

What was measured:
Assay type in all cases: functional, cell-based
[1] = test system: A-375; experiment: Antiproliferative activity against human A375 cells assessed as inhibition of cell proliferation incubated for 72 hrs by conventional ATP quantification method; details: A-375, 72 h
[2] = test system: HCT-116; experiment: Antiproliferative activity against human HCT116 cells assessed as inhibition of cell proliferation incubated for 72 hrs by conventional ATP quantification method; details: HCT-116, 72 h
[3] = test system: A549; experiment: (§1) Antiproliferative activity against human A549 cells assessed as inhibition of cell proliferation incubated for 72 hrs by conventional ATP quantification method; details: A549, 72 h
[4] = Antiproliferative activity against human NAMALWA cells assessed as inhibition of cell proliferation incubated for 72 hrs by conventional ATP quantification method; details: NAMALVA
[5] = Antiproliferative activity against human WM266.4 cells assessed as inhibition of cell proliferation incubated for 72 hrs by conventional ATP quantification method; details: WM 266-4, 72 h
[6] = test system: A549; experiment: as §1; details: A549, 72 h; remark: listed apart in the source
[7] = test system: MDA-MB-231; experiment: Cytotoxicity against human MDA-MB-231 cells incubated for 72 hrs under hypoxic conditions by MTS assay
[8] = test system: SK-OV-3; experiment: Antiproliferative activity against human SKOV3 cells assessed as inhibition of cell proliferation incubated for 72 hrs by conventional ATP quantification method; details: SK-OV-3, 72 h
[9] = test system: TK-10; experiment: Antiproliferative activity against human TK10 cells assessed as inhibition of cell proliferation incubated for 72 hrs by conventional ATP quantification method; details: TK-10, 72 h
[10] = test system: NCI-H460; experiment: Antiproliferative activity against human NCI-H460 cells assessed as inhibition of cell proliferation incubated for 72 hrs by conventional ATP quantification method; details: NCI-H460, 72 h
[11] = test system: OVCAR-3; experiment: Antiproliferative activity against human OVCAR3 cells assessed as inhibition of cell proliferation incubated for 72 hrs by conventional ATP quantification method; details: OVCAR-3, 72 h
[12] = test system: HT-29; experiment: Cytotoxicity against human HT-29 cells incubated for 72 hrs under hypoxic conditions by MTS assay
[13] = test system: HOP-62; experiment: Antiproliferative activity against human HOP62 cells assessed as inhibition of cell proliferation incubated for 72 hrs by conventional ATP quantification method; details: HOP-62, 72 h
[14] = test system: T47D; experiment: Antiproliferative activity against human T47D cells assessed as inhibition of cell proliferation incubated for 72 hrs by conventional ATP quantification method
[15] = test system: KM12; experiment: Antiproliferative activity against human KM12 cells assessed as inhibition of cell proliferation incubated for 72 hrs by conventional ATP quantification method; details: KM12, 72 h
[16] = test system: DU-145; experiment: Antiproliferative activity against human DU145 cells assessed as inhibition of cell proliferation incubated for 72 hrs by conventional ATP quantification method; details: DU-145, 72 h

| SMILES | IC50 [1] | IC50 [2] | IC50 [3] | IC50 [6] | IC50 [8] | IC50 [10] | IC50 [11] | IC50 [14] | IC50 [16] | IC50 [4] | IC50 [5] | Activity [7] | IC50 [9] | Activity [12] | IC50 [13] | IC50 [15] |
| --- | --- | --- | --- | --- | --- | --- | --- | --- | --- | --- | --- | --- | --- | --- | --- | --- |
| CNC(=O)C1=C[C@@H]2[C@@H](C(C)C)CC[C@@]3(CO3)[C@H]2C(=O)OC1 | 4150 nM | 7100 nM | 5540 nM | – | – | – | – | – | – | 1280 nM | 5.9 µM | – | – | – | – | – |
| CC(C)[C@H]1CC[C@@](O)(CCl)[C@H]2C(=O)OCC(C(=O)O)=C[C@H]12 [HEPTELIDIC ACID CHLOROHYDRIN] | 1310 nM | 220 nM | 550 nM | – | – | – | – | – | – | 320 nM | 0.55 µM | – | – | – | – | – |
| CC(C)[C@H]1CC[C@@](O)(CO)[C@H]2C(=O)OCC(C(=O)O)=C[C@H]12 | > 32000 nM | > 32000 nM | > 32000 nM | – | – | – | – | – | – | > 32000 nM | > 32 µM | – | – | – | – | – |
| C=C(C(=O)O)C1OC(=O)[C@H]2[C@H]1[C@@H](C(C)C)CC[C@@]2(O)CI (some centres undefined) | > 10000 nM | > 10000 nM | > 10000 nM | – | – | – | – | – | – | > 10000 nM | > 10 µM | – | – | – | – | – |

Continued by falling IC50 [1], values first:

| IC50 [1] | IC50 [2] | IC50 [3] | IC50 [6] | IC50 [8] | IC50 [10] | IC50 [11] | IC50 [14] | IC50 [16] | SMILES | IC50 [4] | IC50 [5] | Activity [7] | IC50 [9] | Activity [12] | IC50 [13] | IC50 [15] |
| --- | --- | --- | --- | --- | --- | --- | --- | --- | --- | --- | --- | --- | --- | --- | --- | --- |
| 4000 nM | 610 nM | 1720 nM | – | – | – | – | – | – | CC(C)[C@H]1CC[C@@](O)(CCl)[C@H]2C(=O)OCC(C(=O)OCc3ccc(-c4ccccc4)o3)=C[C@H]12 | 1110 nM | 2.91 µM | – | – | – | – | – |
| 1640 nM | 620 nM | 450 nM | – | – | – | – | – | – | CC(C)[C@H]1CC[C@@]2(CO2)[C@H]2C(=O)OCC(C(=O)OCc3ccc(-c4ccc([N+](=O)[O-])cc4)o3)=C[C@H]12 | 1190 nM | 3.6 µM | – | – | – | – | – |
| 10 nM | – | 30 nM | 20 nM | 20 nM | 20 nM | 20 nM | 20 nM | 20 nM | COc1cccc2c1C(=O)c1c(O)c3c(c(O)c1C2=O)C[C@@](O)(C(=O)CO)C[C@@H]3O[C@H]1C[C@H](N)[C@H](O)[C@H](C)O1 [DOXORUBICIN] | – | 0.15 µM | inactive | 20 nM | inactive | 20 nM | 20 nM |
